Results taken from PubChem BioAssay AID1918931 (Molecular Pharmacology Branch, DTP, NCI, 2023).

Tested on: 138582-337-R-J1-PDC complex spheroid viability
Assay: Anticancer human tumor 138582-337-R-J1-PDC patient-derived Merkel cell tumor cell line growth inhibition
Conditions: for IC50: curve of first compound; for viability, T/C: stronger effect = lower value
Text: Multicellular complex tumor spheroid response to LSD1 Inhibitor Iadademstat in combination with a variety of drugs and investigational agents in selected tumor cell lines
The current study was undertaken to assess response to LSD1 inhibitors in combination with standard-of-care drugs and investigational agents in solid tumor complex spheroid models as well as in the K-562 leukemia. Complex spheroids include a stromal component modeled by human endothelial cells (HUVEC) and fibroblasts modeled by human mesenchymal stem cells (MSCs). The concentration ranges selected for each drug and investigational agent were based upon clinically achievable concentrations if the clinical Cmax of the agent was known.
Compounds. The drugs and investigational agents used in this study are listed on Table 1. All of the agents used, including staurosporine (NSC755774) and gemcitabine (NSC613327), were obtained from the Developmental Therapeutics Program, NCI. FDA-approved anticancer drugs are available from the NCI at http://dtp.nci.nih.gov/branches/dscb/oncology_drugset_explanation.html. Drugs and investigational agents were >95% pure by proton nuclear magnetic resonance (NMR) and liquid chromatography/mass spectrometry (LC/MS). Stock solutions were prepared at 400x in DMSO, stored at -70 degrees C, and diluted in fresh medium prior to their use. The final concentration of DMSO in cell culture wells never exceeded 0.25% (v/v). The FDA-approved anticancer drug set is available from the Developmental Therapeutics Program at https://dtp.cancer.gov/organization/dscb/obtaining/available_plates.htm. All drugs and investigational agents were tested over a range starting from a high concentration at or near the clinical Cmax and decreasing in half-log increments. If the clinical Cmax for an agent had not been determined, the highest concentration tested was 10 microM.
Cell Lines. The patient-derived cancer cell (PDC) lines: 292921-168-R-J2-PDC, K24384-001-R-PDC, and 521955-158-R2-J5-PDC pancreatic carcinomas, 556581-035-R-J1 ovarian carcinoma, 324938-238-R-J1-PDC, 855422-203-R-J1-PDC and 883617-216-R-J1-PDC urothelial bladder carcinomas, 743489-274-T-PDC renal cell carcinoma, 138582-R-J1 Merkel cell tumor, K60290-347-R-J1 and K57222-313-R-J1-PDC glioblastomas, 653999-131-R-J2-PDC, LG0703-F948-PDC, and 349418-098-R-PDC non-small cell lung carcinomas, 885512-296-R-J2-PDC, 171881-019-R-J1-PDC breast carcinomas and 186277-243-T-J2-PDC and 233499-124-R-J2-PDC colon carcinomas were obtained from the NCI Patient-Derived Models Repository (PDMR, https://pdmr.cancer.gov). The established cell lines NCI/ADR-RES (RRID:CVCL_14520 and OVCAR-5 (RRID:CVCL_1628) ovarian carcinomas, 786-O (RRID:CVCL_1051) and A498 (RRID:CVCL_A498) renal cell carcinoma, NCI-H211 (ATCC, cat. CRL-5824; RRID:CVCL_1529), NCI-H196 (ATCC, cat. CRL-5823, RRID:CVCL_1509), SW 1271 (ATCC, cat. CRL-2177, RRID:CVCL_1716) and NCI-H1876 (ATCC, cat. CRL-5902, RRID:CVCL_1503) small cell lung carcinomas, MDA-MB-231 (RRID:CVCL_0062) and MDA-MB-468 (RRID:CVCL_0419)breast carcinomas (10-12). Pooled donor human umbilical vein endothelial cells (HUVEC, Lonza, cat. CC-2519) and human mesenchymal stem cells (hMSC, Lonza, cat. PT-2501) were purchased from Lonza (Walkersville, MD).
Cell Culture. All cells were maintained in an incubator at 37 degrees C and 5% CO2 with 95% humidity. The PDC lines were cultured according to standard operating procedures established by the NCI PDMR (https://pdmr.cancer.gov). Briefly all PDCs were thawed and cultured in Matrigel-coated flasks prepared with a working solution of 1X Ham's F-12 nutrient mix, without supplementation (Invitrogen, Waltham, MA, cat. 11765054), 100 U/mL penicillin-streptomycin (Invitrogen, cat. 15140122), and 2.5% Matrigel (Corning Inc., Corning, NY, cat. 354248) for the first three passages. […]
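Further: spheroids exposed to agents for 7 days.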
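Wherever viability, T/C is given: 100% = DMSO vehicle control viability.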

## CCN(c1cc(-c2ccc(CN3CCOCC3)cc2)cc(C(=O)NCc2c(C)cc(C)[nH]c2=O)c1C)C1CCOCC1 + NC1CCC(NC2CC2c2ccccc2)CC1
Second compound 0.1 µM
  IC50: > 3 µM
Second compound 0.316 µM
  IC50: > 3 µM
Second compound 1 µM
  IC50: > 3 µM
Second compound 3.16 µM
  IC50: > 3 µM
Second compound 10 µM
  IC50: > 3 µM
Second compound 0.1 µM, first compound 0.00949 µM
  viability, T/C: 101%
Second compound 0.1 µM, first compound 0.03 µM
  viability, T/C: 87.9%
Second compound 0.1 µM, first compound 0.0949 µM
  viability, T/C: 109%
Second compound 0.1 µM, first compound 0.3 µM
  viability, T/C: 92.4%
Second compound 0.1 µM, first compound 0.949 µM
  viability, T/C: 106%
Second compound 0.1 µM, first compound 3 µM
  viability, T/C: 111%
Second compound 0.316 µM, first compound 0.00949 µM
  viability, T/C: 101%
Second compound 0.316 µM, first compound 0.03 µM
  viability, T/C: 101%
Second compound 0.316 µM, first compound 0.0949 µM
  viability, T/C: 91%
Second compound 0.316 µM, first compound 0.3 µM
  viability, T/C: 95.3%
Second compound 0.316 µM, first compound 0.949 µM
  viability, T/C: 124%
Second compound 0.316 µM, first compound 3 µM
  viability, T/C: 105%
Second compound 1 µM, first compound 0.00949 µM
  viability, T/C: 98.6%
Second compound 1 µM, first compound 0.03 µM
  viability, T/C: 106%
Second compound 1 µM, first compound 0.0949 µM
  viability, T/C: 98.2%
Second compound 1 µM, first compound 0.3 µM
  viability, T/C: 90.3%
Second compound 1 µM, first compound 0.949 µM
  viability, T/C: 97.7%
Second compound 1 µM, first compound 3 µM
  viability, T/C: 103%
Second compound 3.16 µM, first compound 0.00949 µM
  viability, T/C: 99.2%
Second compound 3.16 µM, first compound 0.03 µM
  viability, T/C: 103%
Second compound 3.16 µM, first compound 0.0949 µM
  viability, T/C: 90.6%
Second compound 3.16 µM, first compound 0.3 µM
  viability, T/C: 92.3%
Second compound 3.16 µM, first compound 0.949 µM
  viability, T/C: 110%
Second compound 3.16 µM, first compound 3 µM
  viability, T/C: 105%
Second compound 10 µM, first compound 0.00949 µM
  viability, T/C: 88.9%
Second compound 10 µM, first compound 0.03 µM
  viability, T/C: 86.7%
Second compound 10 µM, first compound 0.0949 µM
  viability, T/C: 82.2%
Second compound 10 µM, first compound 0.3 µM
  viability, T/C: 90.9%
Second compound 10 µM, first compound 0.949 µM
  viability, T/C: 84.9%
Second compound 10 µM, first compound 3 µM
  viability, T/C: 84.8%

## Cn1ncnc1C1c2n[nH]c(=O)c3cc(F)cc(c23)NC1c1ccc(F)cc1 (stereo not given) + NC1CC1c1ccc(-c2cccc(O)c2)cc1
Second compound 0.1 µM
  IC50: > 0.1 µM
Second compound 0.316 µM
  IC50: > 0.1 µM
Second compound 1 µM
  IC50: > 0.1 µM
Second compound 3.16 µM
  IC50: > 0.1 µM
Second compound 10 µM
  IC50: > 0.1 µM
Second compound 0.1 µM, first compound 0.000316 µM
  viability, T/C: 88.1%
Second compound 0.1 µM, first compound 0.001 µM
  viability, T/C: 80.2%
Second compound 0.1 µM, first compound 0.00316 µM
  viability, T/C: 83.3%
Second compound 0.1 µM, first compound 0.01 µM
  viability, T/C: 69.9%
Second compound 0.1 µM, first compound 0.0316 µM
  viability, T/C: 62.3%
Second compound 0.1 µM, first compound 0.1 µM
  viability, T/C: 67.3%
Second compound 0.316 µM, first compound 0.000316 µM
  viability, T/C: 72.5%
Second compound 0.316 µM, first compound 0.001 µM
  viability, T/C: 88.3%
Second compound 0.316 µM, first compound 0.00316 µM
  viability, T/C: 74.2%
Second compound 0.316 µM, first compound 0.01 µM
  viability, T/C: 71%
Second compound 0.316 µM, first compound 0.0316 µM
  viability, T/C: 66%
Second compound 0.316 µM, first compound 0.1 µM
  viability, T/C: 70.7%
Second compound 1 µM, first compound 0.000316 µM
  viability, T/C: 79.8%
Second compound 1 µM, first compound 0.001 µM
  viability, T/C: 83.7%
Second compound 1 µM, first compound 0.00316 µM
  viability, T/C: 73%
Second compound 1 µM, first compound 0.01 µM
  viability, T/C: 86.2%
Second compound 1 µM, first compound 0.0316 µM
  viability, T/C: 82.2%
Second compound 1 µM, first compound 0.1 µM
  viability, T/C: 77%
Second compound 3.16 µM, first compound 0.000316 µM
  viability, T/C: 80.4%
Second compound 3.16 µM, first compound 0.001 µM
  viability, T/C: 91.3%
Second compound 3.16 µM, first compound 0.00316 µM
  viability, T/C: 82.5%
Second compound 3.16 µM, first compound 0.01 µM
  viability, T/C: 81.1%
Second compound 3.16 µM, first compound 0.0316 µM
  viability, T/C: 72.1%
Second compound 3.16 µM, first compound 0.1 µM
  viability, T/C: 77.5%
Second compound 10 µM, first compound 0.000316 µM
  viability, T/C: 99%
Second compound 10 µM, first compound 0.001 µM
  viability, T/C: 96.1%
Second compound 10 µM, first compound 0.00316 µM
  viability, T/C: 100%
Second compound 10 µM, first compound 0.01 µM
  viability, T/C: 84.3%
Second compound 10 µM, first compound 0.0316 µM
  viability, T/C: 82.7%
Second compound 10 µM, first compound 0.1 µM
  viability, T/C: 81.2%
